Like-named read-outs stand apart in the source and are kept apart here.
Tests used:
[1] = Release of bupropion base from bupropion HCl and HBr; type: physicochemical; settings: 150 mg of the salt tested
Protocol: It was previously observed that when 150 mg of bupropion HCl was tested for its release of bupropion, the base value that was released was 130 mg.

[2] = Moisture content of bupropion salts by KF; type: physicochemical; settings: for KF (moisture content), Original (Initial APIs): original API salts
Protocol: (§1) The eight salts were first evaluated by HPLC, KF, pH and DSC for purity, water content, aqueous pH and possible polymorphs.
(§2) The salts were analysed by DSC (at 10° C./min from 30° C. up to 400° C.) and the pH (aq. 0.5%), and the moisture content by KF were also measured. The TGA was performed on the HCl, maleate, tosylate and HBr salts.

[3] = Thermal analysis by TGA of bupropion salts; type: physicochemical
Protocol: 2-5 mg of each salt was placed in an aluminium pan and covered with its lid. DSC was run for each sample at the rate of 10° C./min (for HBr salt, different rates were used to investigate for polymorphs) from 30° C. to 400° C. TGA was also used for each of the HBr, HCl, maleate and tosylate salts.
as §2

[4] = Solubility of Bupropion HBr vs Bupropion HCl in water, EtOH, IPA; type: physicochemical
[5] = TGA experiment at 100° C., loss of API salt over time; type: physicochemical; settings: TGA at 100° C.
Protocol: The average weight of the excipients and the weight of the active pharmaceutical ingredient (API) present in the samples are presented in Table 72. […] FIG. 53 is a graph showing the loss of each salt over time in a TGA experiment at 100° C.

[6] = Forced degradation stability study of bupropion salts spiked with placebo/excipients, closed vials, 40° C./75% RH, HPLC assay and impurities
Protocol: The stability of the salts was evaluated based on the formation of the main degradation products (see below) as determined by HPLC analysis and the % potency (or assay) of the API, after specific time periods in the stability chamber. The effect of the addition of solvents, such as water, ethanol and isopropyl alcohol, was also studied.
The samples of each salt and the spiked salts with the bupropion HCl XL were prepared under the conditions mentioned in Table 4. […] The stability of the bupropion salts were evaluated based on the formation of the main degradation product 3-chlorobenzoic acid (3-CBZ) and the intermediate degradation products diketone 827U76 and the ketohydroxyl derivatives (20U78 and 852U77) (Scheme 2).
As mentioned above, the stability samples were prepared in 2 mL vials and used directly for assay and impurity analysis by HPLC without further sample preparations to minimize errors.

[7] = pH of 0.5% aqueous solution of bupropion salts; type: physicochemical; settings: for pH (aq. 0.5%), Original (Initial APIs): 0.5% aqueous solution, original API salts
Protocol: as §1, §2

[8] = Comparative forced degradation of bupropion HCl and HBr API salts, closed glass bottle, 40° C./75% RH, HPLC; type: physicochemical; settings: closed glass bottle
Protocol: Further stability tests were performed by directly comparing bupropion HBr and bupropion HCl salts in forced degradation studies. […] At specified times, the material in the bottles was analyzed for the presence of degradation products and % potency (% assay).
The samples were exposed to the above conditions in a closed bottle for few days, and then subjected to HPLC analysis. The amount of the main degradation products present after treatment were compared with those amounts that were present initially.
The samples were analysed after 14 and 24 days (study-1) and 10 days (study II), in a quantitative manner by direct treatment of the whole content of the bottle as per the HPLC standard test method (P05.901.10).

[9] = In IPA/EtOH, 32 days, closed vials
[10] = In water, 32 days, closed vials
[11] = repeat study, 40 C/75% RH, 10 Days, Lot# STN06973, hydrochloride
[12] = repeat study, 40 C/75% RH, 10 Days, Lot# STN06978, hydrochloride
[13] = repeat study, 40 C/75% RH, Initial, Lot# STN06973, hydrochloride
[14] = repeat study, 40 C/75% RH, Initial, Lot# STN06978, hydrochloride

Compound: CC(NC(C)(C)C)C(=O)c1cccc(Cl)c1.Cl (racemic) [Bupropion HCl, (±)-1-(3-chlorophenyl)-2-[(1,1-dimethylethyl)amino]-1-propanone hydrochloride, reference compound]
- Base value of bupropion released [1]: 130 mg
- Moisture Content (KF) ([2]; Table 3, supplier API): 0.01%
- KF (moisture content), Original (Initial APIs) [2]: 0.0%
- TGA: residue at 400° C. [3]: minimal residues
- solubility ([4]; ethanol, organic solvent or mixture, EtOH, read-out: Solubility, EtOH): 80 mg/mL
- solubility ([4]; isopropanol, organic solvent or mixture, IPA, read-out: Solubility, IPA): 10 mg/mL
- solubility ([4]; water, read-out: Solubility, Water): 270 mg/mL
- Disproportionation of the salt at elevated temperature [5]: disproportionation of the HCl salt occurs with concomitant loss of gaseous HCl
- Order of stability (assay) with IPA & EtOH ([6]; DS and excipients spiked with IPA & EtOH, 32 days, closed vials, 40° C.): HCl>HBr>tosylate>maleate>fumarate
- Order of stability (assay) with water ([6]; DS and excipients spiked with water, 32 days, closed vials, 40° C.): tosylate>maleate>HCl>HBr>fumarate
- Content of impurity 3-CBZ, order of salts [6, 9]: maleate > HBr > HCl > Fumarate
- Content of impurity 852U77, order of salts [6, 9]: fumarate > HBr ≈ HCl ≈ maleate ≈ tosylate
- Total imp., order of salts [6, 9]: fumarate > maleate > HBr > HCl > tosylate
- Content of impurity 3-CBZ, order of salts [6, 10]: HCl > HBr ≈ maleate ≈ fumarate
- Content of impurity 852U77, order of salts [6, 10]: fumarate > HBr > maleate > HCl
- Total imp., order of salts [6, 10]: fumarate > HBr > HCl > tosylate > maleate
- Order of stability (assay, % potency) ([6]; salt plus excipients, 20 days, closed vial, 40° C./75% RH): HBr>HCl=tosylate>fumarate>maleate
- pH (aq. 0.5%), Original (Initial APIs) [7]: 5.90
- pH (aq. 0.5%) ([7]; Table 3, supplier API): 5.90
- % Assay ([8]; 40° C./75% RH, 14-Days): 98.5%
- % Impurities 3-CBZ ([8]; 40° C./75% RH, 14-Days): 0.019%
- % Impurities 20U78/dilu ([8]; 40° C./75% RH, 14-Days): 0.038%
- % Impurities 852U77 ([8]; 40° C./75% RH, 14-Days): 0.010%
- % Impurities Total unknown ([8]; 40° C./75% RH, 14-Days): 0.038%
- Total (%) impurities ([8]; 40° C./75% RH, 14-Days): 0.11%
- % Assay ([8]; 40° C./75% RH, 24 Days): 98.5%
- % Impurities 3-CBZ ([8]; 40° C./75% RH, 24 Days): 0.082%
- % Impurities 20U78/dilu ([8]; 40° C./75% RH, 24 Days): 0.040%
- % Impurities 827U76 ([8]; 40° C./75% RH, 24 Days): 0.102%
- % Impurities 852U77 ([8]; 40° C./75% RH, 24 Days): 0.023%
- % Impurities Total unknown ([8]; 40° C./75% RH, 24 Days): 0.049%
- Total (%) impurities ([8]; 40° C./75% RH, 24 Days): 0.30%
- % Assay ([8]; 40° C./75% RH, Initial): 100.4%
- % Impurities 3-CBZ ([8]; 40° C./75% RH, Initial): 0.002%
- % Impurities 20U78/dilu ([8]; 40° C./75% RH, Initial): 0.043%
- % Impurities 852U77 ([8]; 40° C./75% RH, Initial): 0.003%
- % Impurities Total unknown ([8]; 40° C./75% RH, Initial): 0.044%
- Total (%) impurities ([8]; 40° C./75% RH, Initial): 0.09%
- % Assay [8, 11]: 96.3%
- % Impurities 3-CBZ [8, 11]: 0.110%
- % Impurities 20U78/dilu [8, 11]: 0.047%
- % Impurities 827U76 [8, 11]: 0.045%
- % Impurities 852U77 [8, 11]: 0.047%
- % Impurities Total unknown [8, 11]: 0.187%
- Total (%) impurities [8, 11]: 0.44%
- % Assay [8, 12]: 96.5%
- % Impurities 3-CBZ [8, 12]: 0.278%
- % Impurities 20U78/dilu [8, 12]: 0.057%
- % Impurities 827U76 [8, 12]: 0.141%
- % Impurities 852U77 [8, 12]: 0.124%
- % Impurities Total unknown [8, 12]: 0.137%
- Total (%) impurities [8, 12]: 0.74%
- % Assay [8, 13]: 99.4%
- % Impurities 3-CBZ [8, 13]: 0.003%
- % Impurities 20U78/dilu [8, 13]: 0.040%
- % Impurities Total unknown [8, 13]: 0.053%
- Total (%) impurities [8, 13]: 0.10%
- % Assay [8, 14]: 99.1%
- % Impurities 3-CBZ [8, 14]: 0.002%
- % Impurities 20U78/dilu [8, 14]: 0.04%
- % Impurities Total unknown [8, 14]: 0.165%
- Total (%) impurities [8, 14]: 0.21%

Compound: Bupropion maleate
- KF (moisture content), Original (Initial APIs) [2]: 0.10%
- TGA: residue at 400° C. [3]: minimal residues
- TGA: thermally stable to at least ([3]; TGA): at least 150 °C
- TGA: weight lost between room temperature and 100° C. ([3]; room temperature to 100° C.): 1.3%
- Content of impurity 3-CBZ, order of salts [6, 9]: maleate > HBr > HCl > Fumarate
- Content of impurity 852U77, order of salts [6, 9]: fumarate > HBr ≈ HCl ≈ maleate ≈ tosylate
- Total imp., order of salts [6, 9]: fumarate > maleate > HBr > HCl > tosylate
- Content of impurity 3-CBZ, order of salts [6, 10]: HCl > HBr ≈ maleate ≈ fumarate
- Content of impurity 852U77, order of salts [6, 10]: fumarate > HBr > maleate > HCl
- Total imp., order of salts [6, 10]: fumarate > HBr > HCl > tosylate > maleate
- pH (aq. 0.5%), Original (Initial APIs) [7]: 4.29
